Measurements as given in patent publication US5525626A (priority 1989, dated 1996).
Where two headings read alike, the source gives them in different places. Each block holds one compound with its values, some of them ahead of it.

Columns and labels:
Type in all cases: cell-based
[1] = system: Tp 410 N neuroblastoma cells; experiment: 3H-thymidine assay; details: Homo sapiens, Neuroblastoma cell; for activity at 1 µM / activity at 2 µM / activity at 4 µM / activity at 8 µM / activity at 16 µM / activity at 25 µM / activity at 50 µM / activity at 100 µM / activity at 250 µM / activity at 500 µM: read-out: 3H-thymidine insertion (%) of control; for IC50: read-out: active substance concentration at which 3H-thymidine insertion was 50% inhibited
[2] = system: brain-tumor cells (glioblastoma cells); experiment: growth inhibition of brain-tumor cells; details: Tables 1 to 3
A-375 melanoma cells = experiment: 3H-thymidine assay; details: Homo sapiens
Daudi leukemic cells = experiment: 3H-thymidine assay; details: Homo sapiens; for activity at 1 µM / activity at 2 µM / activity at 4 µM / activity at 8 µM / activity at 16 µM / activity at 25 µM / activity at 50 µM / activity at 100 µM / activity at 250 µM / activity at 500 µM: read-out: 3H-thymidine tracer (%) of control
[3] = system: Z-R-75-1 breast cancer cells; experiment: 3H-thymidine assay; details: Homo sapiens
[4] = system: GV-1 prostate carcinoma cells; experiment: 3H-thymidine assay; details: for activity at 1 µM / activity at 2 µM / activity at 4 µM / activity at 8 µM / activity at 16 µM / activity at 25 µM / activity at 50 µM / activity at 100 µM / activity at 250 µM / activity at 500 µM: read-out: 3H-thymidine tracer (%) of control; for IC50: read-out: active substance concentration at which 3H-thymidine insertion was 50% inhibited
[5] = A-375, 1 μM/ml, read-out: 3H-thymidine tracer (%) of control
[6] = A-375, 2 μM/ml, read-out: 3H-thymidine tracer (%) of control
[7] = A-375, 4 μM/ml, read-out: 3H-thymidine tracer (%) of control
[8] = A-375, 8 μM/ml, read-out: 3H-thymidine tracer (%) of control
[9] = A-375, 25 μM/ml, read-out: 3H-thymidine tracer (%) of control
[10] = A-375, 50 μM/ml, read-out: 3H-thymidine tracer (%) of control
[11] = A-375, 100 μM/ml, read-out: 3H-thymidine tracer (%) of control
[12] = A-375, 250 μM/ml, read-out: 3H-thymidine tracer (%) of control
[13] = A-375, 500 μM/ml, read-out: 3H-thymidine tracer (%) of control
[14] = A-375, Table 4, *: maximum usable dosage, no 50% inhibition, read-out: active substance concentration at which 3H-thymidine insertion was 50% inhibited
[15] = Table 4, read-out: active substance concentration at which 3H-thymidine insertion was 50% inhibited
[16] = ZR-75-1, 1 μM/ml, read-out: 3H-thymidine tracer (%) of control
[17] = ZR-75-1, 2 μM/ml, read-out: 3H-thymidine tracer (%) of control
[18] = ZR-75-1, 4 μM/ml, read-out: 3H-thymidine tracer (%) of control
[19] = ZR-75-1, 8 μM/ml, read-out: 3H-thymidine tracer (%) of control
[20] = ZR-75-1, 16 μM/ml, read-out: 3H-thymidine tracer (%) of control
[21] = ZR-75-1, 25 μM/ml, read-out: 3H-thymidine tracer (%) of control
[22] = ZR-75-1, 50 μM/ml, read-out: 3H-thymidine tracer (%) of control
[23] = ZR-75-1, 100 μM/ml, read-out: 3H-thymidine tracer (%) of control
[24] = ZR-75-1, 250 μM/ml, read-out: 3H-thymidine tracer (%) of control
[25] = ZR-75-1, 500 μM/ml, read-out: 3H-thymidine tracer (%) of control
[26] = ZR-75-1, Table 4, *: maximum usable dosage, no 50% inhibition, read-out: active substance concentration at which 3H-thymidine insertion was 50% inhibited
[27] = A-375, read-out: 3H-thymidine tracer (%) of control
[28] = ZR-75-1, read-out: 3H-thymidine tracer (%) of control

SMILES: O=c1ccc2cc(O)c(O)cc2o1 [Esculetin, 6,7-hydroxy-1,2-benzopyrone]
activity at 1 µM ([1]; 1 μM/ml): 94%
activity at 2 µM ([1]; 2 μM/ml): 86%
activity at 4 µM ([1]; 4 μM/ml): 75%
activity at 8 µM ([1]; 8 μM/ml): 69%
activity at 16 µM ([1]; 16 μM/ml): 64%
activity at 25 µM ([1]; 25 μM/ml): 48%
activity at 50 µM ([1]; 50 μM/ml): 42%
activity at 100 µM ([1]; 100 μM/ml): 40%
activity at 250 µM ([1]; 250 μM/ml): 34%
activity at 500 µM ([1]; 500 μM/ml): 29%
IC50 ([1]; Table 4): 25 µM
growth-inhibiting effect on brain-tumor cells [2]: strong growth-inhibiting effect on brain-tumor cells
activity at 1 µM (A-375 melanoma cells; [5]): 98%
activity at 2 µM (A-375 melanoma cells; [6]): 91%
activity at 4 µM (A-375 melanoma cells; [7]): 89%
activity at 8 µM (A-375 melanoma cells; [8]): 84%
activity at 16 µM (A-375 melanoma cells; A-375, 16 μM/ml, read-out: 3H-thymidine tracer (%) of control): 75%
activity at 25 µM (A-375 melanoma cells; [9]): 70%
activity at 50 µM (A-375 melanoma cells; [10]): 65%
activity at 100 µM (A-375 melanoma cells; [11]): 63%
activity at 250 µM (A-375 melanoma cells; [12]): 59%
activity at 500 µM (A-375 melanoma cells; [13]): 55%
IC50 (A-375 melanoma cells; [14]): > 500 µM
activity at 1 µM (Daudi leukemic cells; 1 μM/ml): 94%
activity at 2 µM (Daudi leukemic cells; 2 μM/ml): 96%
activity at 4 µM (Daudi leukemic cells; 4 μM/ml): 83%
activity at 8 µM (Daudi leukemic cells; 8 μM/ml): 75%
activity at 16 µM (Daudi leukemic cells; 16 μM/ml): 69%
activity at 25 µM (Daudi leukemic cells; 25 μM/ml): 63%
activity at 50 µM (Daudi leukemic cells; 50 μM/ml): 61%
activity at 100 µM (Daudi leukemic cells; 100 μM/ml): 57%
activity at 250 µM (Daudi leukemic cells; 250 μM/ml): 54%
activity at 500 µM (Daudi leukemic cells; 500 μM/ml): 39%
IC50 (Daudi leukemic cells; [15]): 250 µM
activity at 1 µM [3, 16]: 98%
activity at 2 µM [3, 17]: 96%
activity at 4 µM [3, 18]: 89%
activity at 8 µM [3, 19]: 84%
activity at 16 µM [3, 20]: 77%
activity at 25 µM [3, 21]: 70%
activity at 50 µM [3, 22]: 61%
activity at 100 µM [3, 23]: 53%
activity at 250 µM [3, 24]: 46%
activity at 500 µM [3, 25]: 39%
IC50 [3, 26]: 175 µM
activity at 1 µM ([4]; 1 μM/ml): 97%
activity at 2 µM ([4]; 2 μM/ml): 93%
activity at 4 µM ([4]; 4 μM/ml): 88%
activity at 8 µM ([4]; 8 μM/ml): 84%
activity at 16 µM ([4]; 16 μM/ml): 78%
activity at 25 µM ([4]; 25 μM/ml): 75%
activity at 50 µM ([4]; 50 μM/ml): 63%
activity at 100 µM ([4]; 100 μM/ml): 60%
activity at 250 µM ([4]; 250 μM/ml): 58%
activity at 500 µM ([4]; 500 μM/ml): 50%
IC50 ([4]; Table 4): 500 µM

SMILES: O=c1ccc2cc(O[C@@H]3O[C@H](CO)[C@@H](O)[C@H](O)[C@H]3O)c(O)cc2o1 [Esculin, 6-beta-D-glucopyranosyloxy-7-hydroxy-1,2-benzopyrone]
activity at 1 µM [1]: 100%
activity at 2 µM [1]: 96%
activity at 4 µM [1]: 85%
activity at 8 µM [1]: 76%
activity at 16 µM [1]: 69%
activity at 25 µM [1]: 62%
activity at 50 µM [1]: 54%
activity at 100 µM [1]: 43%
activity at 250 µM [1]: 38%
activity at 500 µM [1]: 30%
IC50 [1]: 75 µM
activity at 1 µM (A-375 melanoma cells; [27]): 100%
activity at 2 µM (A-375 melanoma cells; [27]): 96%
activity at 4 µM (A-375 melanoma cells; [27]): 93%
activity at 8 µM (A-375 melanoma cells; [27]): 87%
activity at 16 µM (A-375 melanoma cells; [27]): 82%
activity at 25 µM (A-375 melanoma cells; [27]): 78%
activity at 50 µM (A-375 melanoma cells; [27]): 71%
activity at 100 µM (A-375 melanoma cells; [27]): 64%
activity at 250 µM (A-375 melanoma cells; [27]): 60%
activity at 500 µM (A-375 melanoma cells; [27]): 57%
IC50 (A-375 melanoma cells; A-375, read-out: active substance concentration at which 3H-thymidine insertion was 50% inhibited): > 500 µM
activity at 1 µM (Daudi leukemic cells): 100%
activity at 2 µM (Daudi leukemic cells): 98%
activity at 4 µM (Daudi leukemic cells): 93%
activity at 8 µM (Daudi leukemic cells): 87%
activity at 16 µM (Daudi leukemic cells): 80%
activity at 25 µM (Daudi leukemic cells): 71%
activity at 50 µM (Daudi leukemic cells): 69%
activity at 100 µM (Daudi leukemic cells): 52%
activity at 250 µM (Daudi leukemic cells): 48%
activity at 500 µM (Daudi leukemic cells): 44%
IC50 (Daudi leukemic cells; read-out: active substance concentration at which 3H-thymidine insertion was 50% inhibited): 100 µM
activity at 1 µM [3, 28]: 100%
activity at 2 µM [3, 28]: 97%
activity at 4 µM [3, 28]: 89%
activity at 8 µM [3, 28]: 85%
activity at 16 µM [3, 28]: 75%
activity at 25 µM [3, 28]: 72%
activity at 50 µM [3, 28]: 64%
activity at 100 µM [3, 28]: 56%
activity at 250 µM [3, 28]: 51%
activity at 500 µM [3, 28]: 47%
IC50 ([3]; ZR-75-1, read-out: active substance concentration at which 3H-thymidine insertion was 50% inhibited): 250 µM
activity at 1 µM [4]: 97%
activity at 2 µM [4]: 95%
activity at 4 µM [4]: 85%
activity at 8 µM [4]: 84%
activity at 16 µM [4]: 79%
activity at 25 µM [4]: 76%
activity at 50 µM [4]: 68%
activity at 100 µM [4]: 60%
activity at 250 µM [4]: 51%
activity at 500 µM [4]: 43%
IC50 [4]: 250 µM

IC50 ([1]; Table 4): 500 µM
IC50 (A-375 melanoma cells; [14]): > 500 µM
IC50 (Daudi leukemic cells; [15]): 250 µM
IC50 [3, 26]: > 500 µM
IC50 ([4]; Table 4): 500 µM
SMILES: COc1cc2ccc(=O)oc2cc1O [Scopoletin, 6-methoxy-7-hydroxy-1,2-benzopyrone]
activity at 1 µM ([1]; 1 μM/ml): 100%
activity at 2 µM ([1]; 2 μM/ml): 98%
activity at 4 µM ([1]; 4 μM/ml): 95%
activity at 8 µM ([1]; 8 μM/ml): 87%
activity at 16 µM ([1]; 16 μM/ml): 82%
activity at 25 µM ([1]; 25 μM/ml): 74%
activity at 50 µM ([1]; 50 μM/ml): 71%
activity at 100 µM ([1]; 100 μM/ml): 65%
activity at 250 µM ([1]; 250 μM/ml): 62%
activity at 500 µM ([1]; 500 μM/ml): 54%
activity at 1 µM (A-375 melanoma cells; [5]): 99%
activity at 2 µM (A-375 melanoma cells; [6]): 96%
activity at 4 µM (A-375 melanoma cells; [7]): 90%
activity at 8 µM (A-375 melanoma cells; [8]): 89%
activity at 25 µM (A-375 melanoma cells; [9]): 87%
activity at 50 µM (A-375 melanoma cells; [10]): 78%
activity at 100 µM (A-375 melanoma cells; [11]): 75%
activity at 250 µM (A-375 melanoma cells; [12]): 75%
activity at 500 µM (A-375 melanoma cells; [13]): 70%
activity at 1 µM (Daudi leukemic cells; 1 μM/ml): 96%
activity at 2 µM (Daudi leukemic cells; 2 μM/ml): 94%
activity at 4 µM (Daudi leukemic cells; 4 μM/ml): 80%
activity at 8 µM (Daudi leukemic cells; 8 μM/ml): 79%
activity at 16 µM (Daudi leukemic cells; 16 μM/ml): 71%
activity at 25 µM (Daudi leukemic cells; 25 μM/ml): 64%
activity at 50 µM (Daudi leukemic cells; 50 μM/ml): 58%
activity at 100 µM (Daudi leukemic cells; 100 μM/ml): 53%
activity at 250 µM (Daudi leukemic cells; 250 μM/ml): 49%
activity at 500 µM (Daudi leukemic cells; 500 μM/ml): 41%
activity at 1 µM [3, 16]: 98%
activity at 2 µM [3, 17]: 96%
activity at 4 µM [3, 18]: 91%
activity at 8 µM [3, 19]: 83%
activity at 16 µM [3, 20]: 79%
activity at 25 µM [3, 21]: 72%
activity at 50 µM [3, 22]: 64%
activity at 100 µM [3, 23]: 57%
activity at 250 µM [3, 24]: 55%
activity at 500 µM [3, 25]: 50%
activity at 1 µM ([4]; 1 μM/ml): 100%
activity at 2 µM ([4]; 2 μM/ml): 98%
activity at 4 µM ([4]; 4 μM/ml): 91%
activity at 8 µM ([4]; 8 μM/ml): 88%
activity at 16 µM ([4]; 16 μM/ml): 82%
activity at 25 µM ([4]; 25 μM/ml): 78%
activity at 50 µM ([4]; 50 μM/ml): 71%
activity at 100 µM ([4]; 100 μM/ml): 63%
activity at 250 µM ([4]; 250 μM/ml): 61%
activity at 500 µM ([4]; 500 μM/ml): 51%
